Test results from ChEMBL document CHEMBL3885861, “Open TG-GATES”.

Species: Rattus norvegicus
Test: Open TG-GATES - Regimen: Single
Type: toxicity, organism-based, Sprague-Dawley
Set-up: regimen Single, gender Male, age 6 weeks
Details: in vivo, po, 6 mg/kg, route gavage, dose level Middle; for APTT / Bas / Eos / Fbg / Hb / Lym / MCH / MCHC / MCV / Mono / Neu / PT / Plat / RBC / Ret / WBC: tissue Blood; for KIDNEY_L / KIDNEY_R / KIDNEY_TOTAL: tissue Kidney; for LIVER: tissue Liver; for ALP / ALT / AST / BUN / CRE / Ca / Cl / DBIL / GLC / IP / K / LDH / Na / PL / RALB / TBIL / TC / TG / TP / gamma-GTP: tissue Plasma

For `OCCN1CCN(CCCN2c3ccccc3Sc3ccc(C(F)(F)F)cc32)CC1` [FLUPHENAZINE], which TERMINAL_BW (3 h) is on record?
The TERMINAL_BW was 196.9 g.

What about the APTT (3 h) of the same molecule?
Its APTT is 16 s.

What about the Bas (3 h) of the same molecule?
Its Bas is 0%.

What about the Eos (3 h) of the same molecule?
The Eos was 0.6%.

What about the Fbg (3 h) of the same molecule?
Its Fbg is 213.6 mg/dL.

What about the Hb (3 h) of the same molecule?
The Hb was 12.8 g/dL.

And the Lym (3 h)?
The Lym was 75%.

And the MCH (3 h)?
The MCH was 21.2 pg.

What about the MCHC (3 h) of the same molecule?
The MCHC was 32.9%.

What about the MCV (3 h) of the same molecule?
Its MCV is 64.2 fL.

What about the Mono (3 h) of the same molecule?
Its Mono is 9.2%.

And the Neu (3 h)?
Its Neu is 15.2%.

What about the PT (3 h) of the same molecule?
The PT was 12.5 s.

What about the Plat (3 h) of the same molecule?
Its Plat is 98.9 x10_4/uL.

What about the RBC (3 h) of the same molecule?
The RBC was 607.8 x10_4/ul.

What about the Ret (3 h) of the same molecule?
The Ret was 7.7%.

What about the WBC (3 h) of the same molecule?
The WBC was 78.7 x10_2/uL.

And the KIDNEY_L (3 h)?
The KIDNEY_L was 0.9 g.

What about the KIDNEY_R (3 h) of the same molecule?
Its KIDNEY_R is 0.9 g.

And the KIDNEY_TOTAL (3 h)?
The KIDNEY_TOTAL was 1.8 g.

What about the LIVER (3 h) of the same molecule?
The LIVER was 9.1 g.

What about the ALP (3 h) of the same molecule?
Its ALP is 915 IU/L.

And the ALT (3 h)?
Its ALT is 35.8 IU/L.

What about the AST (3 h) of the same molecule?
The AST was 63.2 IU/L.

And the BUN (3 h)?
Its BUN is 10 mg/dL.

What about the CRE (3 h) of the same molecule?
Its CRE is 0.5 mg/dL.

What about the Ca (3 h) of the same molecule?
Its Ca is 10.3 mg/dL.

What about the Cl (3 h) of the same molecule?
Its Cl is 105.4 meq/L.

What about the DBIL (3 h) of the same molecule?
The DBIL was 0.008 mg/dL.

What about the GLC (3 h) of the same molecule?
The GLC was 191 mg/dL.

And the IP (3 h)?
Its IP is 10.4 mg/dL.

And the K (3 h)?
Its K is 4.4 meq/L.

What about the LDH (3 h) of the same molecule?
Its LDH is 91.6 IU/L.

And the Na (3 h)?
The Na was 138.2 meq/L.

What about the PL (3 h) of the same molecule?
Its PL is 136.6 mg/dL.

And the RALB (3 h)?
Its RALB is 3.6 g/dL.

What about the TBIL (3 h) of the same molecule?
The TBIL was 0.4 mg/dL.

What about the TC (3 h) of the same molecule?
The TC was 77.2 mg/dL.

What about the TG (3 h) of the same molecule?
Its TG is 48 mg/dL.

And the TP (3 h)?
The TP was 5.3 g/dL.

And the gamma-GTP (3 h)?
Its gamma-GTP is 1.8 IU/L.

And the TERMINAL_BW (6 h)?
The TERMINAL_BW was 195.2 g.

And the APTT (6 h)?
Its APTT is 16.4 s.

What about the Bas (6 h) of the same molecule?
The Bas was 0%.

And the Eos (6 h)?
The Eos was 0.8%.

And the Fbg (6 h)?
Its Fbg is 211.6 mg/dL.

And the Hb (6 h)?
Its Hb is 13.2 g/dL.

What about the Lym (6 h) of the same molecule?
The Lym was 74.4%.

And the MCH (6 h)?
Its MCH is 21.3 pg.

What about the MCHC (6 h) of the same molecule?
Its MCHC is 32.8%.

And the MCV (6 h)?
The MCV was 64.9 fL.

And the Mono (6 h)?
Its Mono is 9.4%.

And the Neu (6 h)?
Its Neu is 15.8%.

And the PT (6 h)?
The PT was 12.3 s.

What about the Plat (6 h) of the same molecule?
The Plat was 113.8 x10_4/uL.

And the RBC (6 h)?
Its RBC is 620.4 x10_4/ul.

And the Ret (6 h)?
The Ret was 8.6%.

What about the WBC (6 h) of the same molecule?
The WBC was 89.6 x10_2/uL.

What about the KIDNEY_L (6 h) of the same molecule?
Its KIDNEY_L is 0.9 g.

What about the KIDNEY_R (6 h) of the same molecule?
The KIDNEY_R was 0.9 g.

What about the KIDNEY_TOTAL (6 h) of the same molecule?
The KIDNEY_TOTAL was 1.8 g.

And the LIVER (6 h)?
Its LIVER is 8.8 g.

And the ALP (6 h)?
The ALP was 722.4 IU/L.

And the ALT (6 h)?
The ALT was 30 IU/L.

And the AST (6 h)?
Its AST is 56.2 IU/L.

What about the BUN (6 h) of the same molecule?
The BUN was 10.4 mg/dL.

And the CRE (6 h)?
Its CRE is 0.5 mg/dL.

And the Ca (6 h)?
Its Ca is 10.2 mg/dL.

And the Cl (6 h)?
The Cl was 105.6 meq/L.

And the DBIL (6 h)?
Its DBIL is 0.014 mg/dL.

What about the GLC (6 h) of the same molecule?
The GLC was 196 mg/dL.

What about the IP (6 h) of the same molecule?
The IP was 10.2 mg/dL.

And the K (6 h)?
The K was 4.7 meq/L.

And the LDH (6 h)?
The LDH was 90.8 IU/L.

What about the Na (6 h) of the same molecule?
The Na was 136 meq/L.

And the PL (6 h)?
The PL was 144.4 mg/dL.

What about the RALB (6 h) of the same molecule?
The RALB was 3.6 g/dL.

What about the TBIL (6 h) of the same molecule?
Its TBIL is 0.4 mg/dL.

What about the TC (6 h) of the same molecule?
Its TC is 84.6 mg/dL.

What about the TG (6 h) of the same molecule?
Its TG is 26.8 mg/dL.

And the TP (6 h)?
Its TP is 5.3 g/dL.

What about the gamma-GTP (6 h) of the same molecule?
The gamma-GTP was 1.4 IU/L.

And the TERMINAL_BW (9 h)?
The TERMINAL_BW was 194 g.

And the APTT (9 h)?
Its APTT is 16.5 s.

And the Bas (9 h)?
Its Bas is 0%.

And the Eos (9 h)?
Its Eos is 0.6%.

What about the Fbg (9 h) of the same molecule?
The Fbg was 227 mg/dL.

What about the Hb (9 h) of the same molecule?
The Hb was 13.2 g/dL.

And the Lym (9 h)?
Its Lym is 79.2%.

And the MCH (9 h)?
Its MCH is 22.1 pg.

And the MCHC (9 h)?
The MCHC was 33.3%.

What about the MCV (9 h) of the same molecule?
The MCV was 66.3 fL.

And the Mono (9 h)?
The Mono was 5.8%.

And the Neu (9 h)?
The Neu was 14.8%.

And the PT (9 h)?
Its PT is 12.5 s.

What about the Plat (9 h) of the same molecule?
Its Plat is 112.2 x10_4/uL.

What about the RBC (9 h) of the same molecule?
Its RBC is 598.2 x10_4/ul.

And the Ret (9 h)?
Its Ret is 7.8%.

What about the WBC (9 h) of the same molecule?
Its WBC is 74.5 x10_2/uL.

What about the KIDNEY_L (9 h) of the same molecule?
The KIDNEY_L was 0.9 g.

What about the KIDNEY_R (9 h) of the same molecule?
The KIDNEY_R was 1 g.

What about the KIDNEY_TOTAL (9 h) of the same molecule?
The KIDNEY_TOTAL was 1.9 g.

What about the LIVER (9 h) of the same molecule?
The LIVER was 7.9 g.

What about the ALP (9 h) of the same molecule?
Its ALP is 730.2 IU/L.

What about the ALT (9 h) of the same molecule?
Its ALT is 30.4 IU/L.

And the AST (9 h)?
Its AST is 54.2 IU/L.

And the BUN (9 h)?
Its BUN is 9.2 mg/dL.

And the CRE (9 h)?
The CRE was 0.5 mg/dL.

And the Ca (9 h)?
Its Ca is 10.1 mg/dL.

And the Cl (9 h)?
Its Cl is 106.2 meq/L.

And the DBIL (9 h)?
The DBIL was 0.038 mg/dL.

And the GLC (9 h)?
Its GLC is 189 mg/dL.

What about the IP (9 h) of the same molecule?
Its IP is 10.5 mg/dL.

What about the K (9 h) of the same molecule?
The K was 4.2 meq/L.

And the LDH (9 h)?
The LDH was 83.8 IU/L.

What about the Na (9 h) of the same molecule?
The Na was 138.4 meq/L.

And the PL (9 h)?
The PL was 133.2 mg/dL.

What about the RALB (9 h) of the same molecule?
The RALB was 3.7 g/dL.

What about the TBIL (9 h) of the same molecule?
The TBIL was 0.4 mg/dL.

What about the TC (9 h) of the same molecule?
Its TC is 80.6 mg/dL.

What about the TG (9 h) of the same molecule?
The TG was 21.4 mg/dL.

And the TP (9 h)?
The TP was 5.5 g/dL.

What about the gamma-GTP (9 h) of the same molecule?
The gamma-GTP was 1.8 IU/L.

And the TERMINAL_BW (24 h)?
Its TERMINAL_BW is 201.5 g.

What about the APTT (24 h) of the same molecule?
The APTT was 16.7 s.

And the Bas (24 h)?
The Bas was 0%.

And the Eos (24 h)?
The Eos was 1.2%.

And the Fbg (24 h)?
The Fbg was 208 mg/dL.

And the Hb (24 h)?
The Hb was 13.7 g/dL.

What about the Lym (24 h) of the same molecule?
The Lym was 81.4%.

What about the MCH (24 h) of the same molecule?
The MCH was 21.6 pg.

What about the MCHC (24 h) of the same molecule?
The MCHC was 33.2%.

And the MCV (24 h)?
The MCV was 64.9 fL.

What about the Mono (24 h) of the same molecule?
The Mono was 9%.

What about the Neu (24 h) of the same molecule?
The Neu was 8.6%.

What about the PT (24 h) of the same molecule?
Its PT is 11.9 s.

What about the Plat (24 h) of the same molecule?
Its Plat is 112.8 x10_4/uL.

What about the RBC (24 h) of the same molecule?
Its RBC is 636 x10_4/ul.

What about the Ret (24 h) of the same molecule?
Its Ret is 7.3%.

What about the WBC (24 h) of the same molecule?
The WBC was 85.5 x10_2/uL.

What about the KIDNEY_L (24 h) of the same molecule?
Its KIDNEY_L is 0.9 g.

And the KIDNEY_R (24 h)?
The KIDNEY_R was 0.9 g.

And the KIDNEY_TOTAL (24 h)?
The KIDNEY_TOTAL was 1.8 g.

And the LIVER (24 h)?
Its LIVER is 9.6 g.

What about the ALP (24 h) of the same molecule?
The ALP was 748.4 IU/L.

What about the ALT (24 h) of the same molecule?
The ALT was 28.2 IU/L.

And the AST (24 h)?
The AST was 56.6 IU/L.

What about the BUN (24 h) of the same molecule?
Its BUN is 23.8 mg/dL.

And the CRE (24 h)?
The CRE was 0.5 mg/dL.

What about the Ca (24 h) of the same molecule?
The Ca was 11 mg/dL.

What about the Cl (24 h) of the same molecule?
The Cl was 103.6 meq/L.

What about the DBIL (24 h) of the same molecule?
The DBIL was 0.03 mg/dL.

What about the GLC (24 h) of the same molecule?
Its GLC is 176.8 mg/dL.

What about the IP (24 h) of the same molecule?
The IP was 8 mg/dL.

What about the K (24 h) of the same molecule?
Its K is 5 meq/L.

And the LDH (24 h)?
The LDH was 90 IU/L.

What about the Na (24 h) of the same molecule?
The Na was 137.2 meq/L.

And the PL (24 h)?
The PL was 154.6 mg/dL.

And the RALB (24 h)?
Its RALB is 4.2 g/dL.

And the TBIL (24 h)?
The TBIL was 0.3 mg/dL.

What about the TC (24 h) of the same molecule?
Its TC is 84.4 mg/dL.

What about the TG (24 h) of the same molecule?
The TG was 94.4 mg/dL.

And the TP (24 h)?
The TP was 6.1 g/dL.

What about the gamma-GTP (24 h) of the same molecule?
Its gamma-GTP is 1.2 IU/L.
